Patent publication US8889638B2, “Stimulus-triggered prodrugs” (The Regents of the University of California, priority 2010, dated 2014)

Target: T1, MMP-8 (catalytic domain, human, recombinant) (Homo sapiens, UniProt P22894)
T1 construct: MMP-8 (catalytic domain, human, recombinant); purchased BIOMOL International
Assay: MMP-8 fluorescence-based inhibition assay with and without β-glucosidase
Format: biochemical
Experimental: MMP-9 (catalytic domain, human, recombinant), MMP-8 (catalytic domain, human, recombinant), and the assay kit were purchased from BIOMOL International. The assays were carried out according to the procedure provided with the kit. MMP activity was measured in 96-well plates using a Bio-Tek Flx 800 fluorescent plate reader. The ZBGs and their protected analogs were dissolved in DMSO and diluted in HEPES buffer (50 mM, pH 7.5) to a concentration of 10 mM for 1-2, 40 mM for 3-4, and 1.25 mM for 5-6. Each well contained 20 μL, of MMP-9 (0.45 U/mL), inhibitor (10 μL, of 1-6), 5 μL, of β-glucosidase (1 U/μL) when used, and buffer for a total volume of 99 μL. These were incubated for 1 h at 37° C. […] The reaction was initiated by the addition of 1 μL (400 μM) of the fluorescent substrate (Mca-Pro-Leu-Gly-Leu-Dpa-Ala-Arg-NH2 where Mca=(7-methoxycoumarin-4-yl)-acetyl and Dpa=N-3-(2,4-dinitrophenyl)-L-α-β-diaminopropionyl)) and kinetic activity was measured every minute for 30 min with excitation and emission wavelengths at 335 nm and 405 nm, respectively. Enzyme activity with inhibitor was calculated with respect to the control experiment (no inhibitor present). […]
IC50 values were obtained for compounds 1-8 against MMP-9 and for compounds 7 and 8 against MMP-8. […] Enzyme activity with inhibitor was calculated with respect to the control experiment (no inhibitor present). […]

T1 sequence (P22894 100-262 limits assumed): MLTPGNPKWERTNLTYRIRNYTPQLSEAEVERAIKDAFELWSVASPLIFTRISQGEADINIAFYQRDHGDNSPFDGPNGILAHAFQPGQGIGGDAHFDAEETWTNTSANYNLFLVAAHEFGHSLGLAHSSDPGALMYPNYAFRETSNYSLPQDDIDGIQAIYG

- inhibition at 0.15 µM (150 nM, read-out: inhibition of MMP-8 after activation with β-glucosidase): 33%
- increase in activity upon enzymatic activation (MMP-8, with vs without β-glucosidase): > 1000 fold
Compound: O=C(NCc1ccc(-c2ccccc2)cc1)c1cccc(=O)n1O[C@@H]1O[C@H](CO)[C@@H](O)[C@H](O)[C@H]1O [Compound 8, N-(Biphenyl-4-ylmethyl)-6-oxo-1-(β-D-glucopyranosyloxy)-1,6-dihydropyridine-2-carboxamide]
